{"source": "patent US20150231242A1", "about": "“COMBINATION OF CD37 ANTIBODIES WITH BENDAMUSTINE” (Boehringer Ingelheim International GmbH, priority 2012, published 2015)", "key": {"[1]": {"test_system": "DOHH2 tumors (human follicular lymphoma)", "assay": "Efficacy in subcutaneous DOHH2 human follicular lymphoma xenograft (Example 3)", "format": "in vivo, C.B-17 scid mice", "conditions": "day 16; for anti-tumor effect in words: DOHH2 tumors"}, "DoHH2 tumor cells": {"test_system": "DoHH2 tumor cells", "assay": "DoHH2 human xenograft tumor model (Example 2)", "format": "in vivo, CB-17 SCID mice", "conditions": "A2 10 mg/kg twice weekly, bendamustine 10 mg/kg twice weekly ip; present-tense example"}, "[2]": {"test_system": "Ramos Burkitt lymphoma cells", "assay": "Apoptosis assay (Annexin V/PI staining, FACS) on Ramos cells", "format": "cell-based, human", "conditions": "48 h, A2 10 μg/ml, Annexin V positive cells, mean of three experiments"}, "[3]": {"test_system": "Raji Burkitt lymphoma cells", "assay": "Apoptosis assay (Annexin V/PI staining, FACS) on Raji cells", "format": "cell-based, human", "conditions": "48 h, A2 10 μg/ml, Annexin V positive cells, mean of three experiments"}, "[4]": {"assay": "Body weight / tolerability in DOHH2 tumor-bearing mice (Example 3)", "conditions": "for tolerability in words: body weight as indicator of tolerability"}}}
{"smiles": "Cn1c(CCCC(=O)O)nc2cc(N(CCCl)CCCl)ccc21", "note": "[Bendamustine, 4-[5-[Bis(2-chloroethyl)amino]-1-methylbenzimidazol-2-yl]butanoic acid]", "values": [{"measurement": "anti-tumor effect in words", "setting": "[1]", "value": "significant inhibition of tumor growth"}, {"measurement": "anti-tumor effect in words", "setting": "[1]; listed as bendamustine", "value": "growth inhibited"}, {"measurement": "CR (complete tumor regression)", "setting": "[1]; 7 mice per group", "value": 0, "unit": "x/7"}, {"measurement": "PR (partial tumor regression)", "setting": "[1]; 7 mice per group", "value": 0, "unit": "x/7"}, {"measurement": "TGI", "setting": "[1]; median, antibody A2 10 mg/kg i.p. twice weekly, bendamustine 20 mg/kg i.p. two injections", "value": 57, "unit": "%"}, {"measurement": "anti-tumor effect in words", "setting": "DoHH2 tumor cells", "value": "significant anti-tumor effect"}, {"measurement": "% apoptotic cells", "setting": "[2]; bendamustine 100 μM column", "value": 19, "unit": "%"}, {"measurement": "% apoptotic cells", "setting": "[2]; bendamustine 400 μM column", "value": 35, "unit": "%"}, {"measurement": "% apoptotic cells", "setting": "[3]; bendamustine 200 μM column", "value": 10, "unit": "%"}, {"measurement": "% apoptotic cells", "setting": "[3]; bendamustine 400 μM column", "value": 13, "unit": "%"}, {"measurement": "tolerability in words", "setting": "[4]", "value": "resulted in weight loss"}, {"measurement": "tolerability in words", "setting": "[4]; listed as bendamustine", "value": "moderately tolerated"}, {"measurement": "body weight loss in median", "setting": "[4]; within the first week of treatment", "value": "up to 7.9%"}]}
